Results published in PMC12775434, “Ultra-large virtual screening unveils potent agonists of the neuromodulatory orphan receptor GPR139” (Nature Communications, 2025).
Several values for one entry are separate records, joined by “and”; a condition that tells them apart may be missing. Equal entries are not always repeated.

Tests used:
[1] = target: T1, GPR139 (Homo sapiens, UniProt Q6DWJ6); test: Ca2+ mobilization assay, agonist mode, stable GPR139-CHOk1 cell line; assay type: cell-based
T1 sequence (Q6DWJ6 1-353): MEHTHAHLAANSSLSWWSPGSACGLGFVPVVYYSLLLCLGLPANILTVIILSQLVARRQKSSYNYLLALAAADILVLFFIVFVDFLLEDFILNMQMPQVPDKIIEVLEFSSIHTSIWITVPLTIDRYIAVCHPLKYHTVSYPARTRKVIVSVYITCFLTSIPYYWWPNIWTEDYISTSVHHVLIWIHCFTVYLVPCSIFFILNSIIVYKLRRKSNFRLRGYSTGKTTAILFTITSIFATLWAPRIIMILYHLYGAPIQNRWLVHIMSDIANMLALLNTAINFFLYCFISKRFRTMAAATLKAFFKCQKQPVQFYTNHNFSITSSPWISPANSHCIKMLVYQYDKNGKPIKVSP
Protocol: Primary screening and pharmacological characterization of compounds were performed using a CHO-K1 cell line that stably expresses human GPR139 (GPR139-CHOk1). The GPR139-CHOk1 cell line was kindly provided by H. Lundbeck A/S, Denmark[24]. GPR139-CHOk1 cells were grown in Ham’s F-12 Kaighn’s Modification Medium (ThermoFisher #21127030) supplemented with 10% dialyzed fetal bovine serum (US origin, ThermoFisher #26400044), 100 units/mL Penicillin-Streptomycin (ThermoFisher #15140122), and 1 mg/mL Geneticin (ThermoFisher #11811031). […] M1R-CHOk1 cells were purchased from The Missouri S&T cDNA Resource Center (#CEM100TN00). M1R-CHOk1 cells were grown in Ham’s F12 Medium (ThermoFisher #21765029) supplemented with 10% fetal bovine serum (Brazilian origin, ThermoFisher #10270106), 100 units/mL Penicillin-Streptomycin, and 0.25 mg/mL Geneticin. HEK293A cells transiently transfected with GPR139 were used for additional pharmacological assessment of signaling pathways activated by GPR139. HEK239A cells were generously provided by Dr. Asuka Inoue, Tohoku University, Japan. HEK293A cells were grown in Dulbecco’s Modified Eagle Medium (ThermoFisher #31966047) supplemented with 10% dialyzed fetal bovine serum and 100 units/mL Penicillin-Streptomycin. Cell lines were maintained at 37 °C in humidified incubator equilibrated with 5% CO2.
(§1) 30,000 GPR139- or M1R-CHOk1 cells/well were seeded in black clear bottom tissue culture treated 96-well plates (Greiner #655090) and grown for 20–24 h. Cells were washed with HEPES buffer (Hank’s Balanced Salt Solution (HBBS) supplemented with 20 mM HEPES, 1 mM MgCl2, and 1 mM CaCl2; pH 7.4). Cells were loaded with 50 µL of 2 µM Fluo-4 AM dye (ThermoFisher #F14202) in HEPES buffer supplemented with 2.5 mM probenecid and 0.01% Pluronic F-68 (ThermoFisher #24040032) for 1 h at 37 °C. Cells were washed with HEPES buffer. 50 µL HEPES buffer supplemented with 2.5 mM probenecid was added, and the cells were incubated for 10 min at 37 °C before measurement. 50 µL test compounds diluted in HEPES buffer from DMSO stocks (final DMSO concentration of maximally 0.3%) were added automatically after baseline measurements. The intracellular calcium mobilization was measured on a FlexStation 3 Multimode Microplate Reader (Molecular Devices) at 37 °C with filters for excitation of 485 nm and emission of 525 nm.
(§2) Our primary compound screening protocol consisted of two subsequent steps that allowed to screen for agonists and antagonists simultaneously. In the first step, the screening compounds were applied at 10 µM to test for agonist activity (agonist mode). Following 20 min incubation with the compounds added in the first step, in the second step, an EC80 concentration (800 nM) of the reference agonist Lundbeck Cmp 1a was applied to test for antagonist activity (antagonist mode).
Pharmacological data and statistical analyses were performed in GraphPad Prism v9–10 (Graphpad Software Inc., San Diego, CA), which are also specifically described in the figure and table legends. The functional assay responses were normalized to buffer (0%) and Lundbeck Cmp 1a or JNJ-63533054 (100%), for Ca^2+ and IP1 experiments in the GPR139-CHOk1 stable cell line or Ca^2+, G protein activation, and arrestin-3 recruitment experiments in the HEK293A cells transiently transfected with GPR139, respectively. Data are from at least three independent experiments, unless stated otherwise. Concentration-response curves were fitted applying non-linear regression using the log (agonist) versus response model with variable slope. ANOVA was applied for comparing results and determining statistical significance.

[2] = target: T1, GPR139; test: Ca2+ mobilization assay, antagonist mode (EC80 800 nM Lundbeck Cmp 1a after 20 min preincubation), GPR139-CHOk1; assay type: cell-based
Protocol: as §1
as §2, with “(antagonist mode). In the agonist mode (first step) response is seen only with compounds having agonist activity (Cmp 1a), but not with non-receptor-binding compounds (Vehicle) or antagonists (NCRW0105-E06) (Supplementary Fig. 14). […] No antagonist compounds were identified in this study.” for “(antagonist mode).”

[3] = Agonist mode, individual replicates (Supplementary Figure 1)
[4] = individual replicates (Supplementary Figure 1)

Compound | Ca2+ signal (% of Cmp 1a) [1, 3] | Ca2+ signal (% of Cmp 1a) [2, 4] | Ca2+ signal (% of Cmp 1a) ([1]; primary screen, 10 µM compound, agonist mode, three columns = independent experiments) | Ca2+ signal (% of Cmp 1a) ([1]; Agonist mode, individual replicates (Supplementary Figure 4)) | Ca2+ signal (% of Cmp 1a) ([2]; individual replicates (Supplementary Figure 4))
C[C@@H](NC(=O)CSc1nnc(C(F)(F)F)s1)c1ccccc1 [Compound 54, C[C@@H](NC(=O)CSC1=NN=C(S1)C(F)(F)F)C=2C=CC=CC2] | 0.563 % of Cmp 1a and 1.54 % of Cmp 1a and 23 % of Cmp 1a | 75.2455 % of Cmp 1a and 70.4918 % of Cmp 1a and 82.6113 % of Cmp 1a | – | – | –
COCC1(CNC(=O)NCc2ccccc2)OCCc2ccccc21 (centres unmarked) [Compound 44, COCC1(CNC(=O)NCC=2C=CC=CC2)OCCC=3C=CC=CC31] | 8 % of Cmp 1a and -1.67 % of Cmp 1a and 19 % of Cmp 1a | 80.8112 % of Cmp 1a and 71.471 % of Cmp 1a and 86.0472 % of Cmp 1a | – | – | –
CC(CC(=O)N(CC(=O)N1CCCC1)CC1CCCO1)n1cccc1 (centres unmarked) [Compound 22, CC(CC(=O)N(CC1CCCO1)CC(=O)N2CCCC2)N3C=CC=C3] | 10 % of Cmp 1a and -5.34 % of Cmp 1a and 0.0706 % of Cmp 1a | 90.9616 % of Cmp 1a and 92.7534 % of Cmp 1a and 72.9128 % of Cmp 1a | – | – | –
CC(NC(=O)c1occc1COc1ccccc1)c1ccon1 (centres unmarked) [Compound 32, CC(NC(=O)C=1OC=CC1COC=2C=CC=CC2)C=3C=CON3] | -11 % of Cmp 1a and -0.416 % of Cmp 1a and 7 % of Cmp 1a | 55.4318 % of Cmp 1a and 73.597 % of Cmp 1a and 97.305 % of Cmp 1a | – | – | –
Cc1ccc(Oc2ccc(NC(=O)C(C)n3cccn3)cn2)cc1 (centres unmarked) [Compound 59, CC(C(=O)NC=1C=CC(OC=2C=CC(C)=CC2)=NC1)N3C=CC=N3] | -2 % of Cmp 1a and -8 % of Cmp 1a and 2.12 % of Cmp 1a | 78.8114 % of Cmp 1a and 81.7621 % of Cmp 1a and 78.2182 % of Cmp 1a | – | – | –
Cc1nn(C)c2nc(C(=O)N[C@@H](C)c3ccccc3)ccc12 [Compound 15, C[C@H](NC(=O)C=1C=CC=2C(C)=NN(C)C2N1)C=3C=CC=CC3] | -11 % of Cmp 1a and 0.224 % of Cmp 1a and 7.56 % of Cmp 1a | 88.3523 % of Cmp 1a and 83.7132 % of Cmp 1a and 99.0735 % of Cmp 1a | – | – | –
Cc1ccc(-c2nc(CC(=O)NCc3ccccc3)cs2)cc1 [Compound 68, CC=1C=CC(=CC1)C2=NC(CC(=O)NCC=3C=CC=CC3)=CS2] | -9 % of Cmp 1a and 15 % of Cmp 1a and 19 % of Cmp 1a | 60.0488 % of Cmp 1a and 59.0311 % of Cmp 1a and 102.015 % of Cmp 1a | – | – | –
CCN(C(=O)c1cc(Cc2ccccc2)n[nH]1)c1ccc(F)cc1 [Compound 62, CCN(C(=O)C1=CC(CC=2C=CC=CC2)=NN1)C=3C=CC(F)=CC3] | 3 % of Cmp 1a and 5.34 % of Cmp 1a and 3.55 % of Cmp 1a | 74.8769 % of Cmp 1a and 70.0616 % of Cmp 1a and 70.7351 % of Cmp 1a | 3 % of Cmp 1a and 5.34 % of Cmp 1a and 3.55 % of Cmp 1a | – | –
Cc1nnnn1C(=Cc1ccccc1)C(=O)N[C@@H](C)c1ccccc1 [Compound 17, C[C@H](NC(=O)C(=CC=1C=CC=CC1)N2N=NN=C2C)C=3C=CC=CC3] | 4.36 % of Cmp 1a and -2.84 % of Cmp 1a and 2.54 % of Cmp 1a | 61.7351 % of Cmp 1a and 85.7644 % of Cmp 1a and 78.6356 % of Cmp 1a | – | – | –
C[C@H](NC(=O)c1cn2cccnc2n1)c1ccccc1 [Compound 18, C[C@H](NC(=O)C1=CN2C=CC=NC2=N1)C=3C=CC=CC3] | 2.28 % of Cmp 1a and 13 % of Cmp 1a and 21 % of Cmp 1a | 80.6397 % of Cmp 1a and 68.0976 % of Cmp 1a and 80.5455 % of Cmp 1a | – | – | –
O=C(CCn1nnn(-c2ccccc2)c1=O)Nc1ccc(F)cc1 [Compound 57, FC=1C=CC(NC(=O)CCN2N=NN(C=3C=CC=CC3)C2=O)=CC1] | 6 % of Cmp 1a and 0.524 % of Cmp 1a and 4 % of Cmp 1a | 80.3514 % of Cmp 1a and 84.9179 % of Cmp 1a and 81.9632 % of Cmp 1a | – | – | –
CC(NC(=O)N1CCCCC1c1cnn(C)c1)c1nccs1 (centres unmarked) [Compound 34, CC(NC(=O)N1CCCCC1C=2C=NN(C)C2)C3=NC=CS3] | -1.66 % of Cmp 1a and 6.32 % of Cmp 1a and -6 % of Cmp 1a | 69.32 % of Cmp 1a and 71.8073 % of Cmp 1a and 90.0552 % of Cmp 1a | – | – | –
COc1ccc(OCc2nc(CC(=O)NC(C)c3ccccc3)no2)cc1 (centres unmarked) [Compound 1.37, COC1=CC=C(OCC2=NC(CC(NC(C3=CC=CC=C3)C)=O)=NO2)C=C1] | – | – | – | 65 % of Cmp 1a and 55 % of Cmp 1a and 21 % of Cmp 1a | 36 % of Cmp 1a and 40 % of Cmp 1a and 37 % of Cmp 1a
O=C(NCc1cccnc1)c1cn(-c2cccc(Cl)c2)nn1 [Compound 35, ClC=1C=CC=C(C1)N2C=C(N=N2)C(=O)NCC=3C=CC=NC3] | 5.3 % of Cmp 1a and 12 % of Cmp 1a and 7.49 % of Cmp 1a | 84.5048 % of Cmp 1a and 71.7301 % of Cmp 1a and 84.4533 % of Cmp 1a | – | – | –
CC(C(=O)Nc1cccc(-c2nc3ccccc3n2C)c1)n1cccn1 (centres unmarked) [Compound 67, CC(C(=O)NC=1C=CC=C(C1)C2=NC=3C=CC=CC3N2C)N4C=CC=N4] | 3.19 % of Cmp 1a and -6 % of Cmp 1a and -7 % of Cmp 1a | 87.0817 % of Cmp 1a and 99.3874 % of Cmp 1a and 88.8295 % of Cmp 1a | – | – | –
Cn1nc(-c2ccc(F)cc2F)cc1NC(=O)NCc1ccccn1 [Compound 42, CN1N=C(C=C1NC(=O)NCC=2C=CC=CN2)C=3C=CC(F)=CC3F] | 0.111 % of Cmp 1a and 2.67 % of Cmp 1a and 15 % of Cmp 1a | 73.5301 % of Cmp 1a and 76.7288 % of Cmp 1a and 79.4888 % of Cmp 1a | – | – | –
O=C(Nc1nc(C(F)(F)F)cs1)c1ccccc1-n1cnnn1 [Compound 58, FC(F)(F)C1=CSC(NC(=O)C=2C=CC=CC2N3C=NN=N3)=N1] | 8 % of Cmp 1a and -1.73 % of Cmp 1a and -5 % of Cmp 1a | 95.3999 % of Cmp 1a and 91.9653 % of Cmp 1a and 85.8363 % of Cmp 1a | – | – | –
